In US5688774A (priority 1995, dated 1997):
Where two headings read alike, the source gives them in different places.

Assays:
[1] = biological target: T1, A3 receptors (Rattus norvegicus, UniProt P28647); details: in words; Zhou et al.; cited from earlier work
T1 sequence (P28647 1-320): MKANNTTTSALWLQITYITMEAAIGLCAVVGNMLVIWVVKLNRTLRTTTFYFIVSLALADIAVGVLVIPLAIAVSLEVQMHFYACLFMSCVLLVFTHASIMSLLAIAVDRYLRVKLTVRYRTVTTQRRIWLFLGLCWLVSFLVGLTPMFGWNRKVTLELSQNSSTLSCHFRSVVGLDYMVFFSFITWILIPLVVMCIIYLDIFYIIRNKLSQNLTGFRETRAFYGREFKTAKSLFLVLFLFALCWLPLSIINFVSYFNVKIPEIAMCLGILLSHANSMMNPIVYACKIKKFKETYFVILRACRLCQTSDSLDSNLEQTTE

[2] = system: A3 receptor; details: coadministered with a xanthine antagonist that does not act at A3 receptors; cited from earlier work
[3] = biological target: T2, rat brain A1 receptor (Rattus norvegicus, UniProt P25099); assay: Displacement of [^3 H]PIA binding at A1 receptors
T2 construct: Rat cerebral cortical and striatal membranes were prepared; from tissue; host or cells: rat brain membranes (cerebral cortical)
T2 sequence (P25099 1-326): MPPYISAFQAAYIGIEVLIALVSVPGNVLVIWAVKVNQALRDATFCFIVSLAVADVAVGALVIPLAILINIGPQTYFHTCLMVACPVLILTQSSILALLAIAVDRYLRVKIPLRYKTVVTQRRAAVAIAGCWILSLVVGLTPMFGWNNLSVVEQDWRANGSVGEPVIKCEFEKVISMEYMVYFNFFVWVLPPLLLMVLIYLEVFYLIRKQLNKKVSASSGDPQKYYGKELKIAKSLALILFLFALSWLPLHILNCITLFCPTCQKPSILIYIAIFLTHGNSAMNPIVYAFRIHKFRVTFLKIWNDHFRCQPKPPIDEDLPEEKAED

[4] = biological target: T3, rat brain A2a receptor (Rattus norvegicus, UniProt P30543); assay: Displacement of [^3 H]CGS 21680 binding at A2a receptors
T3 construct: A2 receptors from rat striatal membranes; from tissue; host or cells: rat striatal membranes
Protocol: Rat cerebral cortical and striatal membranes were prepared (Jacobson et al., J. Med. Chem., 35, 4143-4149 (1992)) and treated with ADA for 30 min at 37° C. prior to storage at -70° C.
The stock solutions were diluted with DMSO to a concentration of ≤0.1 mM prior to addition to the aqueous medium. The final concentration of DMSO in the assay medium was generally 2%.
At least six different concentrations spanning three orders of magnitude, adjusted appropriately for the IC50 of each compound, were used. […]. Pharmacol., 22, 3099-3108 (1973)).

[5] = biological target: T4, rat A3 adenosine receptors (Rattus norvegicus, UniProt P28647); assay: Inhibition of adenylate cyclase in CHO cells stably transfected with rat A3 adenosine receptors; type: cell-based; parameters: key to Effect on IB-MECA dose-resp. curve: no effect; details: for Ratio Conc./Ki (A3): test concentration divided by Ki (A3)
T4 construct: expressed in transfected cells; host or cells: CHO cells, stably transfected
T4 sequence (P28647 1-320): T1 sequence (P28647 1-320)

[6] = biological target: T1, A3 receptors; assay: A3 receptor binding selectivity; details: in words
[7] = system: ischemic model in gerbils; details: cited from earlier work
[8] = system: NMDA-induced seizures in mice; details: cited from earlier work
[9] = [^3 H]PIA, rat brain membranes, Ki ± S.E.M., n = 3-6
[10] = [^3 H]CGS 21680, rat brain membranes, Ki ± S.E.M., n = 3-6
[11] = CHO, 1 μM forskolin, average ± S.E.M. for 2-3 determinations or a single value, read-out: % Inhib. (adenylate cyclase)

T3 sequence (P30543 whole entry): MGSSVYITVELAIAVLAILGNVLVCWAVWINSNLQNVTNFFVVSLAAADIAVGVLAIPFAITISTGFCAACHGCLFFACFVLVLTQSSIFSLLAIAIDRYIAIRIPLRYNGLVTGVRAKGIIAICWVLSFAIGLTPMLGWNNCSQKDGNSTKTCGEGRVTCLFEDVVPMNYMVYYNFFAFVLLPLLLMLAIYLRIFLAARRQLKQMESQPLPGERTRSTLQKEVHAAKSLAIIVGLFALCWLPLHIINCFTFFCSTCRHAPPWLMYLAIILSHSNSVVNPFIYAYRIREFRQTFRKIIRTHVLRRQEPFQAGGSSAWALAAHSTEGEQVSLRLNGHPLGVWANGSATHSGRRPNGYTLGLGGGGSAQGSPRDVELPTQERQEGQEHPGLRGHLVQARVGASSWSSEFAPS

Compound: Nc1ccc(CCNc2ncnc3c2ncn3[C@@H]2O[C@H](CO)[C@@H](O)[C@H]2O)cc1 [APNEA, N^6-2-(4-aminophenyl)ethyladenosine]
- activity at the A3 receptor [1]: agonists for the A3 receptor
- cardioprotective potential of A3 receptor activation [2]: has been demonstrated

Compound: CNC(=O)[C@@H]1C[C@@H](OC(C)=O)[C@H](n2cnc3c(NCc4cccc(I)c4)nc(Cl)nc32)O1 [Compound 37, 9-(2-Acetyl-3-Deoxy-β-D-5-Methyl-Ribofuronamido)-2-Chloro -N^6-(3-Iodobenzyl)adenine]
- Ki [3, 9]: 0.778 ± 0.044 µM
- Ki [4, 10]: 15.9 ± 3.7 µM
- inhibition at 20 µM ([5]; CHO, 20 μM, 1 μM forskolin, average ± S.E.M. for 2-3 determinations or a single value, read-out: % Inhib. (adenylate cyclase)): 12.7 ± 1%
- Ratio Conc./Ki (A3) [5]: 320

Compound: CNC(=O)[C@@H]1CC[C@H](n2cnc3c(NCc4ccccc4)nc(Cl)nc32)O1 [Compound 40, 2-Chloro-9-(2,3-Dideoxy-β-D-5-Methyl-Ribofuronamido)-N^6 -Benzyladenine]
- Ki [3, 9]: 11.5 ± 1.3 µM
- Ki [4, 10]: 220 ± 65 µM
- Effect on IB-MECA dose-resp. curve ([5]; 1 μM forskolin): c
- inhibition at 40 µM ([5]; CHO, 40 μM, 1 μM forskolin, average ± S.E.M. for 2-3 determinations or a single value, read-out: % Inhib. (adenylate cyclase)): 18.1 ± 8.7%
- Ratio Conc./Ki (A3) [5]: 1.3

Compound: CNC(=O)[C@H]1O[C@@H](n2cnc3c(NCc4cccc(I)c4)nc(Cl)nc32)[C@@H]2OC(=S)O[C@@H]21 [Compound 46, 2-Chloro-9-(2',3'-O-Thiocarbonyl-β-D-5-Methyl-Ribofuronamido)-N^6-(3-Iodobenzyl)adenine]
- Ki [3, 9]: 0.179 ± 0.024 µM
- Ki [4, 10]: 0.871 ± 0.219 µM
- inhibition at 100 µM [5, 11]: 54.5 ± 8.1%
- Ratio Conc./Ki (A3) [5]: 8200

Compound: CCNC(=O)[C@H]1O[C@@H](n2cnc3c(NCc4ccccc4)ncnc32)[C@H](O)[C@@H]1O [N^6-benzyladenosine-5'-N-ethyluronamide, reference compound]
- agonist efficacy in inhibition of adenylate cyclase ([5]; in words, via rat A3 receptors): full agonists
- selectivity for rat A3 receptors vs. either A1 or A2a receptors in binding assays [6]: only one order of magnitude selective

Compound: CNC(=O)[C@@H]1C[C@H](N=[N+]=[N-])[C@H](n2cnc3c(NCc4cccc(I)c4)nc(Cl)nc32)O1 [Compound 42, 2-Chloro-9-(2'-Azido-2',3'-Dideoxy-β-D-5'-Methyl-Arabinofuronamido)-N^6 (3-Iodobenzyladenine)]
- Ki [3, 9]: 0.401 ± 0.041 µM
- Ki [4, 10]: 28.1 ± 3.2 µM
- inhibition at 100 µM [5, 11]: 27.8%
- Ratio Conc./Ki (A3) [5]: 17

Compound: CCNC(=O)[C@H]1O[C@@H](n2cnc3c(N)nc(NCCc4ccc(CCC(=O)NCCN)cc4)nc32)[C@H](O)[C@@H]1O [APEC]
- tolerance of 2-substitution at A3 receptors [6]: well-tolerated

Compound: OC[C@H]1O[C@@H](n2cnc3c(NCc4cccc(I)c4)nc(Cl)nc32)[C@H](O)[C@@H]1O [2-chloro-N^6-(3-iodobenzyl)-adenosine]
- tolerance of 2-substitution at A3 receptors [6]: well-tolerated

Compound: O[C@@H]1[C@H](O)CO[C@H]1n1cnc2c(NCc3cccc(I)c3)nc(Cl)nc21 [Compound 28, 2-Chloro-9-(b-D-erythrofuranoside)-N^6-(3-iodobenzyl)adenine]
- Ki [3]: 0.811 ± 0.123 µM
- Ki [4]: 2.89 ± 1 µM
- inhibition at 100 µM [5, 11]: 42.2%
- Ratio Conc./Ki (A3) [5]: 360

Compound: CNC(=O)[C@@H]1C[C@@H](O)[C@H](n2cnc3c(NCc4cccc(I)c4)nc(Cl)nc32)O1 [Compound 41b, 2-Chloro-9-(3-Deoxy-β-D-5-Methyl-Ribofuronamido)-N^6-(3-Iodobenzyl)adenine]
- Ki [3, 9]: 1.03 ± 0.15 µM
- Ki [4, 10]: 4.66 ± 0.74 µM
- inhibition at 100 µM [5, 11]: 49.2 ± 3.7%
- Ratio Conc./Ki (A3) [5]: 3000

Compound: CNC(=O)[C@H]1O[C@@H](n2cnc3c(NCc4cccc(I)c4)ncnc32)[C@H](O)[C@@H]1O [IB-MECA, N^6-(3-iodobenzyl)adenosine-5'-N-methyluronamide]
- cerebroprotective effects, ischemic model [7]: cerebroprotective effects
- cerebroprotective effects, NMDA-induced seizures [8]: cerebroprotective effects
